Results as given in patent US11530193B2, “Kinase inhibitors” (The University of Manchester, priority 2018, dated 2022).
Structures can show the parent of a compound that is named as a salt.

Target: CAMK1D (Homo sapiens (Human), UniProt Q8IU85)
Test: Tm-Shift assay (thermal melting, SYPRO Orange);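 for SYK Tm-Shift: recombinant His-tagged protein made in Sf9 insect cells by baculovirus, in HEPES NaCl buffer, heated stepwise with fluorescence recorded at every temperature step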
Format: binding
Conditions: compound 10 μM, protein 2 μM; ΔTm obs vs protein without ligand; triplicate

CAMK1D, sequence (Q8IU85 1-333): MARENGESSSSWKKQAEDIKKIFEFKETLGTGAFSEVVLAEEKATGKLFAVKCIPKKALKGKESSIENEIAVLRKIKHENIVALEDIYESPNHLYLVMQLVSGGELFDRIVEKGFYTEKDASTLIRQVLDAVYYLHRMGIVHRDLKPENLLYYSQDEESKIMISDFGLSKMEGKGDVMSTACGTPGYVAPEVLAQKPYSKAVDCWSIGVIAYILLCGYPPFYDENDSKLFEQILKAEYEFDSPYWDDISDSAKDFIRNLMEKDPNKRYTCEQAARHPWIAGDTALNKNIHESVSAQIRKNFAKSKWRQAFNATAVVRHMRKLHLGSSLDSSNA

Row | SMILES | CAMK1d Tm-Shift [°C]
1 | Cc1ccc(Nc2nc(N3CCC[C@H](N)C3)ncc2C(N)=O)cc1S(=O)(=O)N1CCCCC1 [Example 6, (S)-2-(3-aminopiperidin-1-yl)-4-((4-methyl-3-(piperidin-1-ylsulfonyl)phenyl)amino) pyrimidine-5-carboxamide] | 9.9
2 | CC(C)(C)c1cc(Nc2nc(N3CCC[C@H](N)C3)ncc2C(N)=O)cc(S(=O)(=O)N2CCOCC2)c1 [Example 104, (S)-2-(3-aminopiperidin-1-yl)-4-((3-(tert-butyl)-5-(morpholinosulfonyl)phenyl)amino) pyrimidine-5-carboxamide] | 11.5
3 | CN(C)S(=O)(=O)c1cc(Nc2nc(N3CCC[C@H](N)C3)ncc2C(N)=O)cc(C(C)(C)C)c1 [Example 105, (S)-2-(3-aminopiperidin-1-yl)-4-((3-(tert-butyl)-5-(N,N-dimethylsulfamoyl)phenyl)amino) pyrimidine-5-carboxamide] | 12.9

Same assay, conditions: read-out: CAMK1d Tm-Shift

Row | ΔTm at 10 µM [°C] | SMILES
4 | 9 | CC(C)(C#N)c1cccc(Nc2nc(N3CCC[C@H](N)C3)ncc2C(N)=O)c1 [Example 4, (S)-2-(3-aminopiperidin-1-yl)-4-((3-(2-cyanopropan-2-yl)phenyl)amino)pyrimidine-5-carboxamide]
5 | 12.2 | CC(C)(C)c1cc(Nc2nc(N3CCC[C@H](N)C3)ncc2C(N)=O)cc(S(=O)(=O)N2CCCC2)c1 [Example 103, (S)-2-(3-aminopiperidin-1-yl)-4-((3-(tert-butyl)-5-(pyrrolidin-1-ylsulfonyl)phenyl)amino)pyrimidine-5-carboxamide]
6 | 13.4 | CC(C)(C)c1cc(Nc2nc(N3CCC[C@H](N)C3)ncc2C(N)=O)cc(C(C)(C)C)c1 [Example 3, (S)-2-(3-aminopiperidin-1-yl)-4-((3,5-di-tert-butylphenyl)amino)pyrimidine-5-carboxamide]
7 | 14 | CC(C)(C)c1cc(Nc2nc(N3CCCC(N)C3)ncc2C(N)=O)cc(C(C)(C)C)c1 (stereo not drawn) [Example 2, 2-(3-aminopiperidin-1-yl)-4-((3,5-di-tert-butylphenyl)amino)pyrimidine-5-carboxamide]
8 | 10.6 | CC(C)(C)c1cccc(Nc2nc(N3CCCC(N)C3)ncc2C(N)=O)c1 (stereo not drawn) [Example 1, 2-(3-aminopiperidin-1-yl)-4-((3-(tert-butyl)phenyl)amino)pyrimidine-5-carboxamide]
9 | 10.6 | CC(C)(C)c1cc(Nc2nc(N3CCC[C@@H](N)C3)ncc2C(N)=O)cc(C(C)(C)C)c1 [Example 7, (R)-2-(3-aminopiperidin-1-yl)-4-((3,5-di-tert-butylphenyl)amino)pyrimidine-5-carboxamide hydrochloride]
10 | -0.8 | COC1(c2cc(Nc3nc(N4CCC[C@H](N)C4)ncc3C(N)=O)cc(C(F)(F)F)c2)CC1 [Example 122, (S)-2-(3-aminopiperidin-1-yl)-4-((3-(1-methoxycyclopropyl)-5-(trifluoromethyl)phenyl)amino)pyrimidine-5-carboxamide]

Target: SYK (Homo sapiens (Human), UniProt P43405)
Test: Tm-Shift assay (thermal melting, SYPRO Orange);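 for SYK Tm-Shift: recombinant His-tagged protein made in Sf9 insect cells by baculovirus, in HEPES NaCl buffer, heated stepwise with fluorescence recorded at every temperature step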
Format: binding
Conditions: not given

Row | SMILES | SYK Tm-Shift [°C]
11 | CN1CCN(C(=O)c2cccc(Nc3nc(N4CCC[C@H](N)C4)ncc3C(N)=O)c2)CC1=O.Cl [Example 38, (S)-2-(3-aminopiperidin-1-yl)-4-((3-(4-methyl-3-oxopiperazine-1-carbonyl)phenyl)amino)pyrimidine-5-carboxamide hydrochloride] | 3.4
12 | Cc1ccc(Nc2nc(N3CCC[C@H](N)C3)ncc2C(N)=O)cc1S(=O)(=O)N1CCCCC1 [Example 6, (S)-2-(3-aminopiperidin-1-yl)-4-((4-methyl-3-(piperidin-1-ylsulfonyl)phenyl)amino) pyrimidine-5-carboxamide] | 3.3
13 | CC(C)(C)c1cc(Nc2nc(N3CCC[C@H](N)C3)ncc2C(N)=O)cc(S(=O)(=O)N2CCOCC2)c1 [Example 104, (S)-2-(3-aminopiperidin-1-yl)-4-((3-(tert-butyl)-5-(morpholinosulfonyl)phenyl)amino) pyrimidine-5-carboxamide] | 0.9
14 | COC[C@H]1CCCN1C(=O)c1cccc(Nc2nc(N3CCC[C@H](N)C3)ncc2C(N)=O)c1.Cl [Example 36, 2-((S)-3-aminopiperidin-1-yl)-4-((3-((R)-2-(methoxymethyl)pyrrolidine-1-carbonyl)phenyl)amino)pyrimidine-5-carboxamide hydrochloride] | 1.4
15 | CN(C)S(=O)(=O)c1cc(Nc2nc(N3CCC[C@H](N)C3)ncc2C(N)=O)cc(C(C)(C)C)c1 [Example 105, (S)-2-(3-aminopiperidin-1-yl)-4-((3-(tert-butyl)-5-(N,N-dimethylsulfamoyl)phenyl)amino) pyrimidine-5-carboxamide] | 1.3
16 | CC(C)(O)C1CN(C(=O)c2cccc(Nc3nc(N4CCC[C@H](N)C4)ncc3C(N)=O)c2)C1.Cl [Example 37, (S)-2-(3-aminopiperidin-1-yl)-4-((3-(3-(2-hydroxypropan-2-yl)azetidine-1-carbonyl)phenyl)amino)pyrimidine-5-carboxamide hydrochloride] | 5.0
17 | CC(C)(C)c1cc(Nc2nc(N3C[C@H](N)C[C@H](N)C3)ncc2C(N)=O)cc(C(C)(C)C)c1.Cl.Cl [Example 11, 4-((3,5-di-tert-butylphenyl)amino)-2-((3S,5R)-3,5-diaminopiperidin-1-yl)pyrimidine-5-carboxamide dihydrochloride] | −0.5
18 | C[C@@H]1COC[C@H](C)N1C(=O)c1cccc(Nc2nc(N3CCC[C@H](N)C3)ncc2C(N)=O)c1.Cl [Example 33, 2-((S)-3-aminopiperidin-1-yl)-4-((3-((3S,5R)-3,5-dimethylmorpholine-4-carbonyl)phenyl)amino)pyrimidine-5-carboxamide hydrochloride] | 0.5

Same assay, conditions: compound 10 μM, protein 2 μM; ΔTm obs vs protein without ligand; triplicate

Row | SYK Tm-Shift [°C] | SMILES
19 | 0.9 | CC(C)(O)c1cc(Nc2nc(N3CCC[C@H](N)C3)ncc2C(N)=O)cc(C(C)(C)O)c1 [Example 90, (S)-2-(3-aminopiperidin-1-yl)-4-((3,5-bis(2-hydroxypropan-2-yl)phenyl)amino) pyrimidi-ne-5-carboxamide]
20 | 3.2 | CC(C)(C)c1cc(Nc2nc(N3CCC[C@H](N)C3)ncc2C(N)=O)ccn1 [Example 8, (S)-2-(3-aminopiperidin-1-yl)-4-((2-(tert-butyl)pyridin-4-yl)amino)pyrimidine-5-carboxamide]
21 | 8.2 | NC(=O)c1cnc(N2CCC[C@H](N)C2)nc1Nc1cc(C2CC2)cc(C2CC2)c1 [Example 53, (S)-2-(3-aminopiperidin-1-yl)-4-((3,5-dicyclopropylphenyl)amino)pyrimidine-5-carboxamide]
22 | 4.3 | COc1ccc2c(c1)CN(C(=O)c1cccc(Nc3nc(N4CCC[C@H](N)C4)ncc3C(N)=O)c1)C2 [Example 35, (S)-2-(3-aminopiperidin-1-yl)-4-((3-(5-methoxyisoindoline-2-carbonyl)phenyl)amino)pyrimidine-5-carboxamide]
23 | 3.1 | C[C@@H]1CN(C(=O)c2cccc(Nc3nc(N4CCC[C@H](N)C4)ncc3C(N)=O)c2)C[C@H](C)O1 [Example 39, 2-((S)-3-aminopiperidin-1-yl)-4-((3-((2R,6S)-2,6-dimethylmorpholine-4-carbonyl)phenyl)amino)pyrimidine-5-carboxamide]
24 | 0.7 | CC(C)(C)c1cc(Nc2nc(N3CCC[C@H](N)C3)ncc2C(N)=O)cc(S(=O)(=O)N2CCCC2)c1 [Example 103, (S)-2-(3-aminopiperidin-1-yl)-4-((3-(tert-butyl)-5-(pyrrolidin-1-ylsulfonyl)phenyl)amino)pyrimidine-5-carboxamide]
25 | 1.4 | NC(=O)c1cnc(N2CCC[C@H](N)C2)nc1Nc1cccc(C(=O)N2CCOCC2)c1 [Example 24, (S)-2-(3-aminopiperidin-1-yl)-4-((3-(morpholine-4-carbonyl)phenyl)amino)pyrimidine-5-carboxamide]
26 | 0.3 | NC(=O)c1cnc(N2CCC[C@H](N)C2)nc1Nc1cc(C(=O)N2CCOCC2)cc(-c2ccccc2)c1 [Example 21, (S)-2-(3-aminopiperidin-1-yl)-4-((5-(morpholine-4-carbonyl)-[1,1′-biphenyl]-3-yl)amino)pyrimidine-5-carboxamide]
27 | 0.3 | CC1(C)C(=O)Nc2ccc(Nc3nc(N4CCC[C@H](N)C4)ncc3C(N)=O)cc21 [Example 65, (S)-2-(3-aminopiperidin-1-yl)-4-((3,3-dimethyl-2-oxoindolin-5-yl)amino)pyrimidine-5-carboxamide]
28 | 6.5 | Cc1ccccc1-c1cccc(Nc2nc(N3CCC[C@H](N)C3)ncc2C(N)=O)c1 [Example 10, (S)-2-(3-aminopiperidin-1-yl)-4-((2′-methyl-[1,1′-biphenyl]-3-yl)amino)pyrimidine-5-carboxamide]
29 | 1.8 | NC(=O)c1cnc(N2CCC[C@H](N)C2)nc1Nc1cccc(C(=O)N2CCCCC2)c1 [Example 26, (S)-2-(3-aminopiperidin-1-yl)-4-((3-(piperidine-1-carbonyl)phenyl)amino)pyrimidine-5-carboxamide]
30 | 0.3 | Cc1cccc(C)c1-c1cc(Nc2nc(N3CCC[C@H](N)C3)ncc2C(N)=O)cc(C(=O)N2CCOCC2)c1 [Example 20, (S)-2-(3-aminopiperidin-1-yl)-4-((2′,6′-dimethyl-5-(morpholine-4-carbonyl)-[1,1′-biphenyl]-3-yl)amino)pyrimidine-5-carboxamide]
31 | 1.6 | CN(C)C(=O)c1cccc(Nc2nc(N3CCC[C@H](N)C3)ncc2C(N)=O)c1 [Example 23, (S)-2-(3-aminopiperidin-1-yl)-4-((3-(dimethylcarbamoyl)phenyl)amino)pyrimidine-5-carboxamide]
32 | 0.5 | CC(C)(C#N)c1cc(Nc2nc(N3CCC[C@H](N)C3)ncc2C(N)=O)cc(C(=O)N2CCOCC2)c1 [Example 48, (S)-2-(3-aminopiperidin-1-yl)-4-((3-(2-cyanopropane-2-yl)-5-(morpholine-4-carbonyl)phenyl)amino)pyrimidine-5-carboxamide]
33 | 1.2 | NC(=O)c1cnc(N2CCC[C@H](N)C2)nc1Nc1cc(C(=O)N2CCOCC2)cc(C(F)(F)F)c1 [Example 43, (S)-2-(3-aminopiperidin-1-yl)-4-((3-(morpholine-4-carbonyl)-5-(trifluoromethyl)phenyl)amino)pyrimidine-5-carboxamide]
34 | 3.4 | CC(C)(O)c1cc(Nc2nc(N3CCC[C@H](N)C3)ncc2C(N)=O)cc(C(F)(F)F)c1 [Example 89, (S)-2-(3-aminopiperidin-1-yl)-4-((3-(2-hydroxypropan-2-yl)-5-(trifluoromethyl)phenyl)amino)pyrimidine-5-carboxamide]
35 | 0.7 | CC(C)(C#N)c1cc(Nc2nc(N3CCC[C@H](N)C3)ncc2C(N)=O)cc(C(=O)N2CCCC2)c1 [Example 47, (S)-2-(3-aminopiperidin-1-yl)-4-((3-(2-cyanopropan-2-yl)-5-(pyrrolidine-1-carbonyl)phenyl)amino)pyrimidine-5-carboxamide]
36 | 0.5 | CN(C)C(=O)c1cc(Nc2nc(N3CCC[C@H](N)C3)ncc2C(N)=O)cc(C(C)(C)C#N)c1 [Example 46, (S)-2-(3-aminopiperidin-1-yl)-4-((3-(2-cyanopropan-2-yl)-5-(dimethylcarbamoyl)phenyl)amino)pyrimidine-5-carboxamide]
